Laboratory results taken from article PMC5594493, “Antiproliferative factor (APF) binds specifically to sites within the cytoskeleton-associated protein 4 (CKAP4) extracellular domain” (BMC Biochemistry, 2017).
“Also recorded” adds a separate entry of the source.

Tests used:
CKAP4_106–602 = assay: SPR, CKAP4_106–602 as immobilized ligand; type: binding; conditions: CKAP4_106–602 immobilized on NTA chip
Protocol: (§1) All SPR experiments were performed on a Biacore X-100 instrument (GE Healthcare) with the chip surface at 25 °C using PBS containing 0.01% Tween-20 as running buffer. CKAP4 recombinant proteins were immobilized individually either by Ni^2+/nitrilotriacetic acid (NTA) chelation on Sensor Chip NTA or by amine-coupling on Sensor Chip CM5, on the Fc2 channel. For amine-coupling, the sensor surface on both flow cells was activated for 7 min with a 1:1 mixture of 0.1 M EDC (1-ethyl-3-(3-dimethylaminopropyl) carbodiimide hydrochloride) and 0.1 M NHS (N-hydroxysuccinimide) at a flow rate of 5 μl/min. Immobilization of CKAP4 proteins (on Fc2) was performed in 10 mM sodium acetate buffer, at either pH 4.5, 5.0, or 5.5 based on preliminary pH scouting runs, for optimal binding. Unreacted NHS groups were quenched with a 7 min injection of 1 M ethanolamine pH 8.5. The Fc1 channel was treated similarly but without CKAP4 and served as a reference. Upon stabilization of the baseline signal, multi-cycle kinetics assays were performed with injections of as-APF as analyte at various concentrations (2.5–40 μM) in running buffer at 30 μl/min for 2 min, immediately followed by a 3 min dissociation phase. […] The data were analyzed using Biacore Evaluation software V2.0. […]

CKAP4 = assay: SPR binding to CKAP4 recombinant proteins (overall statements); conditions: comparison of as-APF, APF and control peptide
Protocol: as §1

CKAP4_127–360 = biological target: T1, CKAP4_127–360 (Homo sapiens, UniProt Q07065); assay: SPR detection of as-APF in spiked urine, CKAP4_127–360 biosensor; type: binding; conditions: immobilized CKAP4_127–360
T1 construct: amino acids 106–602, 127–360, 361–524, and 525–602 regions were generated by PCR and subcloned into the pET-15b bacterial expression vector; His-tag; made in house; host or cells: E. coli BL21(DE3)pLysS
T1 sequence (Q07065 127-360): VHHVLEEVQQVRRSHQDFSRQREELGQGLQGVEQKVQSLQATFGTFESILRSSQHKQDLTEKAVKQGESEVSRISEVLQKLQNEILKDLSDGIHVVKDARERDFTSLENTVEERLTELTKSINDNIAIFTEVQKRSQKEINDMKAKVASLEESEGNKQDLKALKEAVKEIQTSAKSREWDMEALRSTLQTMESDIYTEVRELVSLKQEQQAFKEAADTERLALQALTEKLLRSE
Protocol: For experiments using spiked urine, CKAP4_127–360 was immobilized on the Fc2 channel of a CM5 chip by amine-coupling, as the ligand. The Fc1 channel was similarly treated but without CKAP4, to serve as reference. A control urine sample from a healthy donor was mixed 1:1 with as-APF stock (200 μM) solution. Various dilutions of this mixture in SPR running buffer were prepared to yield desired as-APF final concentrations, and then injected over the sensor chip surface. Corresponding dilutions of unspiked control urine were run under identical conditions to account for background interference from urinary constituents. To ensure identical running conditions, all dilutions were adjusted to 1X SPR running buffer from a 10X stock. Sensorgrams were corrected for background interference from urinary constituents by subtracting the RU traces resulting from unspiked urine injections from the RU traces resulting from the corresponding urine dilutions with spiked as-APF, and subsequently replotted after subtracting the RU trace from the reference (Fc1) channel.
In order to determine whether this SPR-based assay employing CKAP4 as a biosensor could be used to detect APF in urine, we used urine from healthy donors spiked with as-APF as a mimetic for IC patient urine. CKAP4_127–360 was employed as the biosensing ligand, since it bound as-APF with the highest affinity. […]

cell proliferation = conditions: cited from earlier work
Protocol: Cells were treated with 20 nM APF or as-APF for 96 h and the rate of cell growth was measured using the XTT proliferation assay. […] The rate of growth of T24 cells was reduced by 47% with APF and by 60% with as-APF, relative to cells treated with vehicle alone; moreover, the difference in the antiproliferative effect of as-APF and APF was de ...

[1] = system: normal bladder epithelial cells; conditions: in vitro; background statement, no reference given; read-out: IC50, growth inhibition; cited from earlier work
From the text: The effects that APF has on cells are remarkable and unique among the reported ligands for CKAP4.

In the case of “Neu5Acα2 − 3Galβ1 − 3GalNAcα-O-TVPAAVVVA [APF]”, the binding (CKAP4_106–602) is reported as “did not bind robustly; also recorded: did not generate sufficient binding”, the “binding to CKAP4 (in words)” value (CKAP4) is reported as “bound to CKAP4 with high specificity compared to control APF peptide” and the “detection in normal urine” value (CKAP4_127–360) is reported as “in a dose-dependent manner”. For the same substance, the “relative antiproliferative effect of as-APF and APF” value (cell proliferation; ref [2]) was “more or less equipotent”, the IC50 (cell proliferation; ref [3], read-out: IC50, inhibition of proliferation) was roughly 1 nM and the IC50 [1] was roughly 1 nM.
